Where a SMILES comes first, the peptide text is derived from it. The star is where a group is joined. pNA = O=[N+]([O-])c1ccc(N*)cc1; MeOSuc = COC(=O)CCC(=O)*
Legend:
TCT8-4 RNA = test: Competition binding of xanthine derivatives, equilibrium filtration; conditions: for Ki: 1 µM 14C-theophylline, 3.3 µM TCT8-4 RNA, read-out: Kc; for Kc(c)/Kc(t): competitor relative to theophylline
Procedure: An attractive feature of a small molecule-RNA interaction is the opportunity to readily investigate quantitatively the relative contribution of various constituents of the small molecule to the overall binding. Competition binding experiments were conducted with a variety of xanthine derivatives and related compounds. In these experiments, the effect of competitor added at various concentrations on the ^14C-theophylline-TCT8-4 RNA interaction was measured. Of particular interest were the roles of CH3 residues at the 1, 3, and 7 positions; these were assessed both individually and in combination. In addition, 1,3-dimethyluric acid probes the 8-position, as it contains a keto oxygen there relative to theophylline, and hypoxanthine, lacking the 2-position keto oxygen of xanthine, permit assessment of this constituent.
Equilibrium filtration assays were performed by the addition of various concentrations of the potential competitor to 1 µM [^14C]-theophylline and 3.3 µM TCT8-4 RNA (SEQ ID NO:249) in a 150 µl reaction mixture containing 100 mM HEPES buffer. Each reaction was performed as described in Example 23. Competition data were fit using a standard competition equation and fitting procedure (Gill et al. (1991) J. Mol. Biol. 220:307) assuming a 1:1 stoichiometry of competitor to RNA. […] From such data a competitor dissociation constant (Kc) was obtained. Under the condition where theophylline and the specific competitor bind to the same site, Kc = Kd.

T7 RNA polymerase = molecular target: T1, T7 RNA polymerase (Escherichia phage T7, UniProt P00573); test: Incorporation of modified nucleotide triphosphates into RNA by T7 RNA polymerase transcription; type: biochemical; conditions: for efficiency of transcription (incorporation) as compared to UTP: three hours, 2 mM ribonucleotide triphosphates, 100 nM double-stranded DNA template, 5 units/ul T7 RNA polymerase
T1 construct: purchased NEB
T1 sequence (P00573 whole entry): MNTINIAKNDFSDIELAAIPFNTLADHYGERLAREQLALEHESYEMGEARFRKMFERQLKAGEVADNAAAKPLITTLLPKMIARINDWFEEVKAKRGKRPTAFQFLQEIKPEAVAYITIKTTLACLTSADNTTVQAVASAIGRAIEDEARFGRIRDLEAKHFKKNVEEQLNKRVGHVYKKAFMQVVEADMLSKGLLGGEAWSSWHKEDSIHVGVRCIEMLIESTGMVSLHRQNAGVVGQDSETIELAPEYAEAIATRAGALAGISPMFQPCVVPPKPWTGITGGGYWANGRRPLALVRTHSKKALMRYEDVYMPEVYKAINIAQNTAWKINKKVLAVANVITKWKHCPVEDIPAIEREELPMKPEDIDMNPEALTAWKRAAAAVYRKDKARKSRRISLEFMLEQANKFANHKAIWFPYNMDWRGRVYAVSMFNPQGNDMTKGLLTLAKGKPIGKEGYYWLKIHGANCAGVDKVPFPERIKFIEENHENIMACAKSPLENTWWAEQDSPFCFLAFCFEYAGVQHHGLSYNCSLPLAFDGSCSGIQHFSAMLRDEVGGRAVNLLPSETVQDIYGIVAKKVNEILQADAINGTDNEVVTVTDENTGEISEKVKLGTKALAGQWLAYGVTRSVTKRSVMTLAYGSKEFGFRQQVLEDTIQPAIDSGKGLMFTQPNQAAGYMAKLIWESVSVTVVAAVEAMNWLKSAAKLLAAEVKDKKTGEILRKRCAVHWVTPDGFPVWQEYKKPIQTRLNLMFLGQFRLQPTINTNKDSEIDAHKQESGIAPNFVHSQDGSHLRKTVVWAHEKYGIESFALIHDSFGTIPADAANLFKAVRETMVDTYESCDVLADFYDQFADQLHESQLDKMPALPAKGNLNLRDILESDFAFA
Procedure: Incorporation of 5-modified uridines into RNA. Four prototypic 5-modified uridines, 5-AA-UTP, 5-F-12-UTP, 5-Dig-11-UTP, and 5-Br-UTP (shown in Figure 2) were incorporated into RNA by the T7.RNA polymerase under standard transcription conditions (40 mM Tris-Cl, pH 8.0, 12 mM MgCl2, 5 mM DTT, 1 mM spermidine, 0.002% Triton X-100, 4% PEG, 37°C). Autoradiogram of a 15% denaturing polyacrylamide gel showing products of transcription done with UTP, 5-AA-UTP, and 5-Br-UTP is shown in Figure 3. The efficiency of transcription was estimated from the total amounts of ^32P-radiolabelled transcript produced after three hours of incubation with 2 mM ribonucleotide triphosphates, 100 nM double-stranded DNA template, and 5 units/ul of T7 RNA polymerase (NEB). 5-AA-UTP, 5-F-12-UTP, 5-Dig-11-UTP, and 5-Br-UTP were incorporated with 28%, 51%, 23%, and 50% efficiency, respectively, as compared to UTP. No transcription was detectable when UTP was omitted from the transcription mixture.
The 2'-amino group of 2'-amino,2'-deoxyuridine is trifluoroacetylated (Imazawa et al. (1979) J. Org. Chem. 44:2039) in 82% yield. This intermediate is phosphorylated at the 5'-position (Ludwig and Eckstein (1989) J. Org. Chem. 54:631) in 61% yield. The 5-iodo derivative of the 2'-amino,2'-deoxyuridine 5'-triphosphate was prepared by mercuration (Dale et al. (1975) Biochemistry 14:2447) in a single step.
RGD-UTP transcription and purification. RGD-UTP was used in a T7 RNA polymerase reaction by direct substitution for normal UTP, and gave yields that were at least 50% of those obtainable with UTP. The concentration of RGD-UTP and other NTPs was 1 mM; the DNA template contained 5' and 3' fixed regions flanking a 30 base pair random sequence. The RNA transcript was purified by adsorption onto an anion exchange column (Mono Q)in a phosphate buffer containing 6 M urea and 50% formamide, and eluted with a gradient to 1 M NaCl (Figure 16). RGD-RNA eluted as one major peak from the column at a position in the gradient slightly ahead of the elution position of an equivalent RNA transcript made with normal UTP, consistent with the altered charge and perhaps altered conformation of the derivatized RNA.

[1] = molecular target: T2, Human neutrophil elastase (Homo sapiens, UniProt P08246); test: Elastase inhibition assay with chromogenic tetrapeptide substrate; type: biochemical; conditions: Lineweaver-Burk plot
T2 construct: purchased Athens Research and Technology, Athens, Georgia
T2 sequence (P08246 30-267): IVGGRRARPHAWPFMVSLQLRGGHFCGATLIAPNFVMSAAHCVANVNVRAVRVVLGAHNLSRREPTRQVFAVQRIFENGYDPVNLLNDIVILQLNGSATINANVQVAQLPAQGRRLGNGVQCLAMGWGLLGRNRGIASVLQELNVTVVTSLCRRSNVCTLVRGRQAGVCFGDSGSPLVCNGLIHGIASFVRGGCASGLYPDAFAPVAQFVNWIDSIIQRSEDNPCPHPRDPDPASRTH
Text: Elastase inhibition assay. The assay for elastase inhibition is based on the use of a chromogenic tetrapeptide substrate. […] The rate of p-nitroanilide generation in the absence of inhibitor was used as the control.
Elastase Inhibition Assay. The assay for elastase inhibition is based on the use of a chromogenic tetrapeptide substrate. […] The rate of p-nitroanilide generation in the absence of inhibitor was used as the negative control; the positive control contained the irreversible inhibitor N-methoxysuccinyl-Ala-Ala-Pro-Val-chloromethyl ketone. OD values were plotted against time, and the slope used to determine the rate of enzyme activity.

[2] = molecular target: Human neutrophil elastase (human) (UniProt P08246); test: elastase inhibition assay with chromogenic substrate, Lineweaver-Burk plot (Figure 22)

Compound | Ki (TCT8-4 RNA) [µM] | Kc(c)/Kc(t) (TCT8-4 RNA) | further results
1-carboxypropyl theophylline [CP-Theophylline] | 0.93 ± 0.2 | 2.9 | 
5-digoxygenin-11-uridine triphosphate [5-Dig-11-UTP] |  |  | efficiency of transcription (incorporation) as compared to UTP (T7 RNA polymerase): 23%
5-fluorescein-12-uridine triphosphate [5-F-12-UTP] |  |  | efficiency of transcription (incorporation) as compared to UTP (T7 RNA polymerase): 51%
Cn1c(=O)[nH]c2nc[nH]c2c1=O [1-methylxanthine] | 9 ± 0.3 | 28 | 
N[C@@H]1[C@H](O)[C@@H](COP(=O)(O)OP(=O)(O)OP(=O)(O)O)O[C@H]1n1ccc(=O)[nH]c1=O [2'-amino,2'-deoxyuridine 5'-triphosphate] |  |  | substrate for T7 RNA polymerase (T7 RNA polymerase): substrates for T7 RNA polymerase
Cn1cnc2c1c(=O)[nH]c(=O)n2C [3,7-dimethylxanthine] | > 500 | > 1500 | recognition by TCT8-4 RNA (TCT8-4 RNA): recognized poorly
Cn1c(=O)[nH]c(=O)c2[nH]cnc21 [3-methylxanthine] | 2 ± 0.7 | 6.3 | competition, fold better relative to xanthine (TCT8-4 RNA): approximately 5 fold
NCC=Cc1cn(C2OC(COP(=O)(O)OP(=O)(O)OP(=O)(O)O)C(O)C2O)c(=O)[nH]c1=O (stereo not shown) [5-AA-UTP, 5-(3-aminoallyl)uridine triphosphate] |  |  | efficiency of transcription (incorporation) as compared to UTP (T7 RNA polymerase): 28%
O=c1[nH]c(=O)n([C@@H]2O[C@H](COP(=O)(O)OP(=O)(O)OP(=O)(O)O)[C@@H](O)[C@H]2O)cc1Br [5-Br-UTP, 5-bromouridine triphosphate] |  |  | efficiency of transcription (incorporation) as compared to UTP (T7 RNA polymerase): 50%
N[C@@H]1[C@H](O)[C@@H](COP(=O)(O)OP(=O)(O)OP(=O)(O)O)O[C@H]1n1cc(I)c(=O)[nH]c1=O [5-iodo,2'-amino,2'-deoxyuridine 5'-triphosphate] |  |  | substrate for T7 RNA polymerase (T7 RNA polymerase): substrates for T7 RNA polymerase
Cn1cnc2[nH]c(=O)[nH]c(=O)c21 [7-methylxanthine] | > 500 | > 1500 | competition, fold less efficient than xanthine (TCT8-4 RNA): at least 1500 fold
Cn1c(=O)c2c(ncn2C)n(C)c1=O [Caffeine, 1,3,7-trimethylxanthine] | 3500 ± 1500 | 10900 | recognition by TCT8-4 RNA (TCT8-4 RNA): extremely poor competitor
O=c1[nH]cnc2nc[nH]c12 [Hypoxanthine] | 49 ± 10 | 153 | competition, fold less efficient than xanthine (TCT8-4 RNA): approximately 5 fold
Cn1c(=O)c2[nH]cnc2n(C)c1=O [Theophylline, 1,3-dimethylxanthine] | 0.32 ± 0.13 | 1 | Kd (TCT8-4 RNA; read-out: Kd for theophylline to RNA used for the competition fit): 0.45 µM
O=c1[nH]c(=O)c2[nH]cnc2[nH]1 [Xanthine] | 8.5 ± 0.4 | 27 | competition, fold less effective than theophylline (TCT8-4 RNA): about 23 fold
COC(=O)CCC(=O)N[C@@H](C)C(=O)N[C@@H](C)C(=O)N1CCC[C@H]1C(=O)N[C@H](C(=O)Nc1ccc([N+](=O)[O-])cc1)C(C)C [substrate, N-methoxysuccinyl-Ala-Ala-Pro-Val-p-nitroanilide] (MeOSuc-AAPV-pNA) |  |  | Km [1]: 160 µM
N-methoxysuccinyl Ala-Ala-Pro-Val |  |  | Ki [1]: 920 µM
N-methoxysuccinyl Ala-Ala-Pro-Val (SEQ ID NO:44) (peptide) |  |  | Ki [2]: 920 µM

— patent publication EP1793006A2, “Nucleic acid ligands and improved methods for producing the same” (priority 1993, dated 1995)
